Experimental findings from patent publication US6768019B2 (Cheil Jedang Corporation, priority 2001, dated 2004) are described below.

Each structure is given as a SMILES string.

One assay addresses T1, cyclooxygenase-2 (Mus musculus, UniProt Q05769).
T1 construct: Peritoneal fluid suspended with macrophages was extracted from a mouse peritoneal cavity; endogenous in cells; host or cells: primary mouse peritoneal macrophages, pretreated with 500 uM aspirin and stimulated with 10 ug/ml LPS
T1 sequence (Q05769 18-604): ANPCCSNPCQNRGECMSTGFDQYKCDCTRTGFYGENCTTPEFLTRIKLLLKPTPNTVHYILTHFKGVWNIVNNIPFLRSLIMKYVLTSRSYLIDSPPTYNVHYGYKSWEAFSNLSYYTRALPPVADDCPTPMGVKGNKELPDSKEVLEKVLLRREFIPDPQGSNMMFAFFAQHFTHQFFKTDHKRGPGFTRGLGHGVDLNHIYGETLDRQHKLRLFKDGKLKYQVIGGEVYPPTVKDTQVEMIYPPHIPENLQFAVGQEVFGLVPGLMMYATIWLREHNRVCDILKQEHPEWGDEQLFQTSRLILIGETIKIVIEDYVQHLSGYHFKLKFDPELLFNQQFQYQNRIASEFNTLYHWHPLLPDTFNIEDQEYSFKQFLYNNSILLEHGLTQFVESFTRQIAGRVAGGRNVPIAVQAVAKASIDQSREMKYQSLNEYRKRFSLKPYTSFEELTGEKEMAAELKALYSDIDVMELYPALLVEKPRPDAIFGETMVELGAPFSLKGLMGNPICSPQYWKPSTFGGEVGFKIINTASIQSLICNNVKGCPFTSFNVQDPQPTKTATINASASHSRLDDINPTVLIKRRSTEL
In words: Inhibition of cyclooxygenase-2 in aspirin-pretreated, LPS-stimulated mouse peritoneal macrophages (PGE2 ELISA). The class given is cell-based. The procedure:
Second, the cyclooxygenase-2 was examined through the following procedure.
Peritoneal fluid suspended with macrophages was extracted from a mouse peritoneal cavity and centrifuged at 4° C., 1,000 rpm for 2 minutes. Then, the supernatant was removed, suspended using incomplete RPMI medium [PC/SM (penicilin/streptomycin)] and again centrifuged under the same condition. […] Then, the cell number was calculated with the hemocytometer and adjusted to reach 1×10^6 cells/ml of cell concentration in the final cell suspension. The resulting suspension was treated with aspirin, adjusting 500 μM of final concentration and transferred into each well of 96-well plate in 100 μl respectively. Again, it was left at 37° C. in 5% CO2 in the incubator for about 2 hours in order to attach macrophages. […] The resulting cell was cultivated in the incubator at 37° C. in 5% CO2 for about 12˜16 hours. Then, arachidonic acid was added, adjusting to 10 μM of a final concentration and incubated at 37° C. for more 10 minutes and the supernatant of the reacted solution (˜180 μl) was recovered to finish the reaction.
(In general: In an ELISA, binding on a coated surface is turned into a signal by an enzyme label.)

The next assay concerns the target T2, cyclooxygenase-1 (Mus musculus, UniProt P22437).
T2 construct: endogenous in cells; host or cells: primary mouse peritoneal macrophages (unstimulated)
T2 sequence (P22437 27-602): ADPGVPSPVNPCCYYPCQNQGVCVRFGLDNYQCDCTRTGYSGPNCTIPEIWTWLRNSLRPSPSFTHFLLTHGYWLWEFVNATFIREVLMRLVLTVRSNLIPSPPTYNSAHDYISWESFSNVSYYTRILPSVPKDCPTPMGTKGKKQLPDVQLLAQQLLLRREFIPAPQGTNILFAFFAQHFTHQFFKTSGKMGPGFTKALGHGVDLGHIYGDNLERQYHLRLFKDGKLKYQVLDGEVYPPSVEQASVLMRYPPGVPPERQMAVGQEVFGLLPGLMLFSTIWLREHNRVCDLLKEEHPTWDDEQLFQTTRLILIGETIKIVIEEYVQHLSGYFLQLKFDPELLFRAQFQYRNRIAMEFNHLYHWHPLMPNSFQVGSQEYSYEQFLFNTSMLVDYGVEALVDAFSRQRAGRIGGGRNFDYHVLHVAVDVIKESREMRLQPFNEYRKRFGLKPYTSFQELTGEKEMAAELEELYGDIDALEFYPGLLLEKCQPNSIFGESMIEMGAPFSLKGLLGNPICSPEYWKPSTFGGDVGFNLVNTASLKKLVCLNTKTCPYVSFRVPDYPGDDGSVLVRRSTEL
Kind of assay: Inhibition of cyclooxygenase-1 in mouse peritoneal macrophages (PGE2 ELISA). The class given is cell-based. The procedure:
First of all, the cyclooxygenase-1 was examined through the following procedure.
Peritoneal fluid in which macrophages were suspended was extracted from a mouse peritoneal cavity and centrifuged at 4° C., 1,000 rpm for 2 minutes. Then, the supernatant was removed, suspended with 20 ml of incomplete (no serum) RPMI medium [PC/SM (penicilin/streptomycin)] and again centrifuged under the same condition. […] Then, the cell number was calculated with the hemocytometer and adjusted to reach 1×10^6 cells/ml of cell concentration in the final cell suspension. 100 μl of the resulting suspension was transferred into each well of 96-well plate and left at 37° C. in 5% CO2 with the incubator for about 2 hours in order to attach macrophages. […] The resulting cell was cultivated in the incubator at 37° C. in 5% CO2 for about 12˜16 hours. Then, arachidonic acid was added, adjusting to 10 μM of a final concentration and incubated at 37° C. for more 10 minutes and the supernatant of the reacted solution (˜180 μl) was recovered to finish the reaction.

Where [1] appears, read: in words, versus comparative substance.

For `CS(=O)(=O)c1ccc(-c2onc3c2-c2ccccc2CC3)cc1` [Example 7, 1-(4-methanesulfonyl-phenyl)-4,5-dihydro-naphto[2,1-c]isooxazole], the “Inhibitory effects of cyclooxygenase (COX), COX-2” value (“Inhibitory effects … COX-2” for short) at cyclooxygenase-2 (30 nM) stood at 59.8 % inhibition; at cyclooxygenase-2 (100 nM), 70.6 % inhibition; at cyclooxygenase-2 (300 nM), 76.8 % inhibition. Moreover, the “selectivity of cyclooxygenase-2” value on cyclooxygenase-2 (in words, COX-2 over COX-1) is recorded as “better than any other substances”. The “inhibition effect against cyclooxygenase-2 compared with comparative substance” value at cyclooxygenase-2 (setting [1]) was “more excellent than a comparative substance”. Also, the “Inhibitory effects of cyclooxygenase (COX), COX-1” value (“Inhibitory effects … COX-1” for short) on cyclooxygenase-1 (3 μM) is given as 30 % inhibition; on cyclooxygenase-1 (10 μM) it was 44.1 % inhibition; at cyclooxygenase-1 (30 μM) it was 56.4 % inhibition. The “inhibition effect against cyclooxygenase-1 compared with comparative substance” value on cyclooxygenase-1 (setting [1]) is listed as “much lower level than a comparative substance”.

Regarding `CC(=O)O/N=C1\CCc2ccccc2C1=Cc1ccc(S(C)(=O)=O)cc1` [Example 8, (E)-1-(4-methanesulfonyl-benzylidene)-3,4-dihydro-1H-naphthalene-2-one O-acetyl-oxime], the figures for the “Inhibitory effects … COX-2” value at cyclooxygenase-2 (30 nM), at cyclooxygenase-2 (100 nM) and at cyclooxygenase-2 (300 nM) were 22.1 % inhibition, 28.6 % inhibition and 29.6 % inhibition, respectively. Besides, the figures for the “Inhibitory effects … COX-1” value on cyclooxygenase-1 (3 μM), on cyclooxygenase-1 (10 μM) and at cyclooxygenase-1 (30 μM) were 7.6 % inhibition, 32.3 % inhibition and 53.9 % inhibition, respectively.

Take `CS(=O)(=O)c1ccc(C=C2/C(=N/OCc3ccccc3)CCc3ccccc32)cc1` [Example 5, (E)-1-(4-methanesulfonyl-benzylidene)-3,4-dihydro-1H-naphthalene-2-one O-benzyl Oxime]: the “Inhibitory effects … COX-2” value at cyclooxygenase-2 (30 nM) is on record as 51.2 % inhibition; at cyclooxygenase-2 (100 nM) it was 55.4 % inhibition; on cyclooxygenase-2 (300 nM) it was 61.4 % inhibition. In addition, the entries for the “Inhibitory effects … COX-1” value at cyclooxygenase-1 (3 μM), at cyclooxygenase-1 (10 μM) and at cyclooxygenase-1 (30 μM) were 39.9 % inhibition, 47.1 % inhibition and 54.3 % inhibition, respectively.

As for `CS(=O)(=O)c1ccc(C=C2/C(=N/O)CCc3ccccc32)cc1` [Example 2, (E)-1-(4-methanesulfonyl-benzylidene)-3,4-dihydro-1H-naphthalene-2-one oxime], the “Inhibitory effects … COX-2” value on cyclooxygenase-2 (30 nM) was 15.7 % inhibition; at cyclooxygenase-2 (100 nM), 20.7 % inhibition; on cyclooxygenase-2 (300 nM), 22 % inhibition. For the same compound, the “Inhibitory effects … COX-1” value is on record as 56.7 % inhibition on cyclooxygenase-1 (3 μM), 68.7 % inhibition on cyclooxygenase-1 (10 μM) and 80.4 % inhibition at cyclooxygenase-1 (30 μM).

As to `CS(=O)(=O)c1ccc(C=C2/C(=N/OC(=O)COCc3ccccc3)CCc3ccccc32)cc1` [Example 9, (E)-1-(4-methanesulfonyl-benzylidene)-3,4-dihydro-1H-naphthalene-2-one O-benzyloxyacetyl-oxime], the entries for the “Inhibitory effects … COX-2” value on cyclooxygenase-2 (30 nM), on cyclooxygenase-2 (100 nM) and on cyclooxygenase-2 (300 nM) were 20.4 % inhibition, 25.5 % inhibition and 30.1 % inhibition, respectively. Further, the “Inhibitory effects … COX-1” value at cyclooxygenase-1 (3 μM) was 22.8 % inhibition; at cyclooxygenase-1 (10 μM), 31.1 % inhibition; on cyclooxygenase-1 (30 μM), 42.1 % inhibition.

Turning to `CS(=O)(=O)c1ccc(-c2[nH]nc3c2-c2ccccc2CC3)cc1` [Example 6, 1-(4-methanesulfonyl-phenyl)-4,5-dihydro-2H-benzo[e]indazole], the results for the “Inhibitory effects … COX-2” value at cyclooxygenase-2 (30 nM), on cyclooxygenase-2 (100 nM) and at cyclooxygenase-2 (300 nM) were 33.4 % inhibition, 46.6 % inhibition and 54.9 % inhibition, respectively. The “Inhibitory effects … COX-1” value on cyclooxygenase-1 (3 μM) was found to be 52.3 % inhibition; at cyclooxygenase-1 (10 μM), 57.3 % inhibition; on cyclooxygenase-1 (30 μM), 64.8 % inhibition.

Turning to `CO/N=C1\CCc2ccccc2C1=Cc1ccc(S(C)(=O)=O)cc1` [Example 4, (E)-1-(4-methanesulfonyl-benzylidene)-3,4-dihydro-1H-naphthalene-2-one O-methyl Oxime], the “Inhibitory effects … COX-2” value came out at 55.4 % inhibition at cyclooxygenase-2 (30 nM), 69.9 % inhibition on cyclooxygenase-2 (100 nM) and 81.5 % inhibition on cyclooxygenase-2 (300 nM). The “Inhibitory effects … COX-1” value on cyclooxygenase-1 (3 μM) was 60.3 % inhibition; on cyclooxygenase-1 (10 μM), 71.1 % inhibition; at cyclooxygenase-1 (30 μM) it was 80.1 % inhibition.

For the compound `CS(=O)(=O)c1ccc(/C=C2/C(=O)CCc3ccccc32)cc1` [Example 1, (E)-1-(4-methanesulfonyl-benzylidene)-3,4-dihydro-1H-naphthalene-2-one], the “Inhibitory effects … COX-2” value on cyclooxygenase-2 (30 nM), on cyclooxygenase-2 (100 nM) and on cyclooxygenase-2 (300 nM) was “˜0 % inhibition” each time. The “Inhibitory effects … COX-1” value on cyclooxygenase-1 (3 μM) worked out at 33.2 % inhibition; at cyclooxygenase-1 (10 μM) it was 40.7 % inhibition; on cyclooxygenase-1 (30 μM), 45.8 % inhibition.

`CCO/N=C1\CCc2ccccc2C1=Cc1ccc(S(C)(=O)=O)cc1` [Example 3, (E)-1-(4-methanesulfonyl-benzylidene)-3,4-dihydro-1H-naphthalene-2-one O-ethyl Oxime]: the figures for the “Inhibitory effects … COX-2” value at cyclooxygenase-2 (30 nM), on cyclooxygenase-2 (100 nM) and on cyclooxygenase-2 (300 nM) were 50.1 % inhibition, 58.8 % inhibition and 70.2 % inhibition, respectively. Moreover, the “Inhibitory effects … COX-1” value at cyclooxygenase-1 (3 μM) is on record as 60.4 % inhibition; at cyclooxygenase-1 (10 μM), 64.4 % inhibition; on cyclooxygenase-1 (30 μM), 74.6 % inhibition.

In the case of `Cn1nc2c(c1-c1ccc(S(C)(=O)=O)cc1)-c1ccccc1CC2` [Example 10, 1-(4-methanesulfonyl-phenyl)-2-methyl-4,5-dihydro-2H-benzo[e]imidazole], the “Inhibitory effects … COX-2” value at cyclooxygenase-2 (30 nM) is 20.2 % inhibition; on cyclooxygenase-2 (100 nM), 31.8 % inhibition; on cyclooxygenase-2 (300 nM) it was 61.0 % inhibition. The “Inhibitory effects … COX-1” value on cyclooxygenase-1 (3 μM) came to 49.8 % inhibition; at cyclooxygenase-1 (10 μM), 55.3 % inhibition; at cyclooxygenase-1 (30 μM), 61.5 % inhibition.
